Holding throughout (test): NCI tumour cell line growth inhibition, 48 h
Assay [1] has as its system KM12 colon.
Assay [2] relates to RXF 393 renal.
In assay [3] the test system is K-562 leukemia.
The subject of assay [4] is HL-60(TB) leukemia.
Assay [5] concerns SK-OV-3 ovarian.
The test system of assay [6] is HCC-2998 colon.
In assay [7] the test system is CAKI-1 renal.
Assay [8] deals with HOP-92 NSCLC.
The test system of assay [9] is SF-268 CNS.
Assay [10] has as its system TK-10 renal.

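Interpolation was linear, between the two tested concentrations surrounding the appropriate level; five concentrations were tested over 48 hours in 96-well plates. GI50 = concentration required for 50% inhibition of growth. TGI marks complete inhibition of growth.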

Consider `CC(=O)OC(C)(C)/C(C)=C/C(=O)O[C@H]1C(=O)O[C@@H]2C[C@H]3[C@H](C)C(=O)C(O[C@@H]4O[C@H](CO)[C@@H](O)[C@H](O)[C@H]4O)=C[C@]3(C)[C@H]3[C@@H](O)[C@H](O)[C@@]4(C(=O)O)OC[C@]32[C@@H]14`, for which the GI50 in assay [1] was over 100 µM; in [2], 37.3 µM; in [3], 39.5 µM; in assay [4] it was 48.2 µM; in assay [5], over 100 µM; in assay [6], 36.5 µM. In addition, the GI50 in assay [7] is over 100 µM; in [8], 65.7 µM; in assay [9], over 100 µM; in assay [10], over 100 µM. The TGI in assay [1], in assay [2], in assay [3], in assay [4], in [5] and in assay [6] was over 100 µM each time. Further, the TGI in [7], in assay [8], in assay [9] and in [10] was over 100 µM in each case.
As to `CC(C)=CCC[C@](C)(O)[C@H]1CC[C@]2(C)[C@@H]1CC[C@@H]1[C@@]3(C)CC/C(=N/O)C(C)(C)[C@@H]3CC[C@]12C`, the GI50 in assay [1] was 12.5 µM; in assay [2], 8.23 µM; in [3], 6.06 µM; in [4], 8.69 µM; in assay [5], 25.7 µM; in [6], 12.9 µM. Further, the GI50 in assay [7] is 10.4 µM; in assay [8], 7.48 µM; in assay [9], 21.5 µM; in assay [10] it was 18 µM. Also, the TGI in assay [1] is over 100 µM; in assay [2], 38.4 µM; in assay [3] it was over 100 µM; in assay [4] it was over 100 µM; in assay [5] it was over 100 µM; in [6] it was 50.8 µM. Also, the TGI in [7] is 50.7 µM; in assay [8], 26.2 µM; in assay [9], over 100 µM; in assay [10], 63.5 µM.
For the compound `O=C(Cc1ccc(F)c(F)c1)Nc1cc(C2(C(F)(F)F)CC2)nn1Cc1ccccc1`, the GI50 in [1] is 4.41 µM; in assay [2], 2.65 µM; in assay [3] it was 5.01 µM; in assay [4], 3.43 µM; in assay [5], 3.56 µM; in assay [6] it was 4.77 µM. Also, the GI50 in [7] is 3.24 µM; in assay [8], 2.32 µM; in assay [9] it was 4.27 µM; in [10], 4.5 µM. In addition, the TGI in assay [1] is over 15 µM; in [2] it was 12.2 µM; in assay [3], over 15 µM; in [4] it was 8.33 µM; in assay [5] it was 11.8 µM; in [6], over 15 µM. Besides, the TGI was 11.5 µM in assay [7], 8.75 µM in assay [8], over 15 µM in assay [9] and over 15 µM in assay [10].
In the case of `c1ccc(CN2COc3c(ccc4c3OCN(Cc3ccccc3)C4)C2)cc1`, the GI50 in [1] was 0.621 µM; in assay [2], 0.41 µM; in [3], 0.445 µM; in [4], 2.33 µM; in [5], 0.639 µM; in assay [6], 1.21 µM. The GI50 in [7] is 0.22 µM; in assay [8], 1.18 µM; in assay [9], 0.605 µM; in [10] it was 0.464 µM. Moreover, the TGI in [1] is over 100 µM; in assay [2], over 100 µM; in assay [3] it was over 100 µM; in assay [4], 7.52 µM; in [5], over 100 µM; in assay [6], over 100 µM. The values for the TGI in assay [8], in assay [9] and in [10] were over 100 µM, over 35.6 µM and over 100 µM, respectively.
In the case of `Cc1ccc(NC(=O)CC2Sc3ccccc3NC2=O)c(C)c1` (centres undefined), the TGI in [1] is 20.1 µM; in [2] it was 31 µM; in [3], 19 µM; in assay [4], 8.35 µM; in [5], 33 µM; in assay [6], 27.3 µM. For the same compound, the TGI in assay [7] stood at 63.3 µM; in assay [8], 39.5 µM; in assay [9] it was 60.7 µM; in [10], 50.9 µM.
Regarding `COC(=O)C(C(=O)C(=O)Nc1ccc([N+](=O)[O-])cc1[N+](=O)[O-])c1nc2ccc(Cl)cc2[nH]c1=O` (centres undefined), the TGI in assay [1], in assay [2], in [3], in assay [4], in assay [5] and in assay [6] was over 100 µM in each case. Besides, the TGI in assay [7], in [8], in [9] and in [10] was over 100 µM throughout.
Take `CC(C)O/N=C/c1cc(NC(=S)OC(C)C)ccc1Cl`: the TGI in assay [1] is over 100 µM; in [2], 52.9 µM; in assay [3], over 53.4 µM; in assay [4], 57.6 µM; in assay [5] it was 98.3 µM; in [6], over 75.3 µM. For the same compound, the TGI in [7] was over 84.7 µM; in assay [8] it was 99.8 µM; in assay [9] it was over 69.8 µM; in assay [10], over 100 µM.

(Values after PubChem BioAssay (NCI).)
